Results on two molecules are retold here after patent publication US11771647B2, “Eye drops in form of solution comprising benzopyran derivative or pharmaceutically acceptable salt thereof” (HANLIM PHARMACEUTICAL CO., LTD., priority 2018, dated 2023).

Series [1] can be described thus: Manufacturability / solubilization of HL217 eye drop solution (appearance). Conditions: pH 6.5. It is filed as physicochemical.
Description: That is, according to the components and amounts shown in Table 1, HL217, polyethylene glycol 400, glycerin, EDTA, and boric acid were added to the sterile purified water under stirring. The pH was adjusted to 6.5 with an aqueous hydrochloric acid solution and/or an aqueous sodium hydroxide solution; and then sterile purified water was added to the solution, so as to adjust the final volume. The amounts in Table 1 represent the amount of each component per 1 mL of the total volume.
Since the maximum allowable concentration of the U.S. Food and Drug Administration for polyethylene glycol 400 is 50 mg/ml in an eye drop formulation, the amount of polyethylene glycol 400 was adjusted to 1/10 (i.e., 15.0 mg) and correspondingly the amount of glycerin was also adjusted to 1/10 (i.e., 12.0 mg) for evaluating the solubilization of HL217. […] Specifically, according to the components and amounts shown in Table 2, HL217, polyethylene glycol 400, glycerin, EDTA, and boric acid were added to the sterile purified water under stirring. The pH was adjusted to 4.5 with an aqueous hydrochloric acid solution and/or an aqueous sodium hydroxide solution; and then sterile purified water was added to the solution, so as to adjust the final volume. The amounts in Table 2 represent the amount of each component per 1 mL of the total volume. […]
For series [2], the system named is mice with very low-density lipoprotein receptor (vldlr) gene knockout. The series is described as follows: Inhibitory efficacy against vascular leakage in animal model of macular degeneration (FIG. 1). Conditions: single intravitreal administration of 1 μl (50 ng/μl ranibizumab) in each eye. Type of series: in vivo. The protocol: Lucentis™ injection (Norvatis, Basel, Switzerland) was used as a positive control.
The control group was instilled with 1 drop of sterile physiological saline, in each eye of normal mice (n=8), twice daily for 3 weeks. The AMD-induced group was instilled with 1 drop of sterile physiological saline, in each eye of mice with vldlr gene knockout (vldlr −/− mice), twice daily for 3 weeks. The positive control group received 1 μl of Lucentis™ injection (containing 50 ng/μl of ranibizumab) in each eye of vldlr −/− mice, by a single intravitreal administration using a Hamiltion syringe (Hamilton company, Reno, NV, USA).
The following experiments were carried out In order to evaluate any abnormality of retinal blood vessels, such as angiogenesis formation and abnormal blood vessel permeability. […] The isolated retina was placed on a slide, dropped with an aqueous mounting medium (Fluoromount™, Sigma, St. Louis, MO, USA) and then observed under a fluorescence microscope. For quantitative analysis of tracer dye, blood was collected from the heart 10 minutes after the dye injection, perfused with sterile PBS to remove residual dye from the blood vessels, and then the eyes were extracted to isolate the retina. The isolated retina was homogenized with 100 μL of PBS and then centrifuged to obtain the supernatant, in which the amount of FITC-dextran was then measured using a spectrofluorophotometer. […]

For `COC(OC)[C@]1(C)Oc2ccc(N)cc2[C@H](N(Cc2ncc[nH]2)c2ccc(Cl)cc2)[C@H]1O` [HL217, (2R,3R,4S)-6-amino-4-[N-(4-chlorophenyl)-N-(1H-imidazol-2-ylmethyl)amino]-3-hydroxy-2-methyl-2-dimethoxymethyl-3,4-dihydro-2H-1-benzopyran], in series [1], the Appearance result is listed as “precipitates were generated”.

B1: Lucentis™ injection: Lucentis™ injection (Norvatis) containing 50 ng/μl of ranibizumab, used as a positive control (antibody, chains of the INN, looked up, V domains shown)
VH: EVQLVESGGGLVQPGGSLRLSCAASGYDFTHYGMNWVRQAPGKGLEWVGWINTYTGEPTYAADFKRRFTFSLDTSKSTAYLQMNSLRAEDTAVYYCAKYPYYYGTSHWYFDVWGQGTLVTVSS
VL: DIQLTQSPSSLSASVGDRVTITCSASQDISNYLNWYQQKPGKAPKVLIYFTSSLHSGVPSRFSGSGSGTDFTLTISSLQPEDFATYYCQQYSTVPWTFGQGTKVEIK
Take B1: the “efficacy (vascular leakage and pathogenic angiogenesis)” value in series [2] is reported as “significant efficacy only at the 2nd week”.
